The CheMixHub viscosity set

Test: xn = mol fraction of the nth substance listed

CCCCCOC(C)=O + CCOc1ccccc1
Conditions	viscosity [mPa·s]
298.15 K, 101 kPa, x2 = 0.5	0.855

CCCCCOC(C)=O + CCc1ccccc1
Conditions	viscosity [mPa·s]
298.15 K, 101 kPa, x2 = 0.089	0.7697

CC(C)CO + CN1CCCC1=O
298.15 K, 101 kPa
Conditions	viscosity [mPa·s]
x2 = 0.0577	2.895
x2 = 0.1202	2.548
x2 = 0.1587	2.399
x2 = 0.2004	2.276
x2 = 0.2421	2.18
x2 = 0.3117	2.053
x2 = 0.368	1.982
x2 = 0.4264	1.931
x2 = 0.4568	1.896
x2 = 0.5217	1.854
x2 = 0.5616	1.83
x2 = 0.6113	1.82
x2 = 0.6662	1.796
x2 = 0.711	1.776
x2 = 0.7618	1.752
x2 = 0.8039	1.747
x2 = 0.8557	1.717
x2 = 0.8982	1.704
x2 = 0.9723	1.677

O=C1CCCN1C1CCCCC1 + CN1CCCC1=O
298.15 K, 100 kPa
Conditions	viscosity [mPa·s]
x2 = 0.0108	10.21
x2 = 0.0206	9.998
x2 = 0.026	9.92
x2 = 0.0415	9.645
x2 = 0.046	9.574
x2 = 0.06	9.318
x2 = 0.0748	9.054
x2 = 0.0872	8.858
x2 = 0.094	8.735
x2 = 0.2076	7.103
x2 = 0.302	5.992
x2 = 0.4096	4.942
x2 = 0.5043	4.171
x2 = 0.61	3.449
x2 = 0.7	2.937
x2 = 0.8042	2.436
x2 = 0.9004	2.038
x2 = 0.9083	2.005
x2 = 0.9175	1.967
x2 = 0.9328	1.93
x2 = 0.9426	1.884
x2 = 0.9516	1.854
x2 = 0.9616	1.837
x2 = 0.9708	1.795
x2 = 0.9798	1.775

C1CCC2=[NH+]CCCN2CC1.c1nc[n-]n1 + CN(C)C=O
303.15 K, 100 kPa
Conditions	viscosity [mPa·s]
x1 = 0.1001	1.42
x1 = 0.2	3.07
x1 = 0.2999	6.28
x1 = 0.4003	11.77
x1 = 0.4989	25.38
x1 = 0.6002	46.11
x1 = 0.7008	98.43
x1 = 0.7993	195
x1 = 0.9002	470.1

O=C1OCCO1 + CNC(C)=O
313.15 K, 101.33 kPa
Conditions	viscosity [mPa·s]
x1 = 0.0747	2.732
x1 = 0.1786	2.456
x1 = 0.2841	2.246
x1 = 0.3817	2.099
x1 = 0.4799	1.984
x1 = 0.5724	1.903
x1 = 0.6726	1.845
x1 = 0.7707	1.814
x1 = 0.869	1.824
x1 = 0.9684	1.893

C1CCC2=[NH+]CCCN2CC1.c1nc[n-]n1 + CO
303.15 K, 100 kPa
Conditions	viscosity [mPa·s]
x1 = 0.1001	5.23
x1 = 0.2	8.57
x1 = 0.2999	24.53
x1 = 0.4003	57.03
x1 = 0.4989	104.5
x1 = 0.6002	205.4
x1 = 0.7008	366.4
x1 = 0.7993	555.9
x1 = 0.9002	882.9

CCCCCC + CO
298.15 K, 101.33 kPa
Conditions	viscosity [mPa·s]
x2 = 0.0532	0.313
x2 = 0.0601	0.313
x2 = 0.138	0.317
x2 = 0.154	0.319
x2 = 0.2491	0.334
x2 = 0.8139	0.49
x2 = 0.8529	0.502
x2 = 0.8644	0.506
x2 = 0.9199	0.525
x2 = 0.9494	0.539
x2 = 0.9771	0.547

CCCCCOC(C)=O + CO
303.15 K, 101.3 kPa
Conditions	viscosity [mPa·s]
x1 = 0.0524	0.537
x1 = 0.1018	0.561
x1 = 0.1038	0.533
x1 = 0.1608	0.547
x1 = 0.1934	0.608
x1 = 0.3024	0.652
x1 = 0.4255	0.695
x1 = 0.5168	0.719
x1 = 0.5951	0.733
x1 = 0.6976	0.753
x1 = 0.791	0.775
x1 = 0.8949	0.794

CCOC(=O)CC + CO
303.15 K, 101.33 kPa
Conditions	viscosity [mPa·s]
x1 = 0.1102	0.524
x1 = 0.1551	0.525
x1 = 0.2735	0.526
x1 = 0.3189	0.527
x1 = 0.3721	0.528
x1 = 0.4967	0.527
x1 = 0.5395	0.524
x1 = 0.613	0.521
x1 = 0.6625	0.518
x1 = 0.7231	0.514
x1 = 0.8087	0.508
x1 = 0.9141	0.501

O=C1CCCN1C1CCCCC1 + CO
298.15 K, 100 kPa
Conditions	viscosity [mPa·s]
x1 = 0.0094	0.589
x1 = 0.0192	0.625
x1 = 0.0288	0.657
x1 = 0.0387	0.69
x1 = 0.0495	0.727
x1 = 0.053	0.743
x1 = 0.067	0.804
x1 = 0.0764	0.832
x1 = 0.0858	0.866
x1 = 0.0883	0.874
x1 = 0.094	0.91
x1 = 0.191	1.366
x1 = 0.2811	1.92
x1 = 0.3806	2.649
x1 = 0.48	3.553
x1 = 0.5758	4.526
x1 = 0.6836	5.807
x1 = 0.7845	7.171
x1 = 0.8973	8.652
x1 = 0.9035	8.749
x1 = 0.9182	8.971
x1 = 0.9294	9.118
x1 = 0.9448	9.356
x1 = 0.9517	9.496
x1 = 0.965	9.7
x1 = 0.9749	9.843
x2 = 0.0157	10
